These results are taken from patent publication US20090197867A1, “ENANTIOMERICALLY ENRICHED IMIDAZOAZEPINONE COMPOUNDS” (priority 2007, published 2009).

One test concerns CIA mouse. The experiment in a line: Suppression of arthritis development in CIA (active immunization). The test is classed as in vivo. Particulars: DBA1/J mice, oral dosing once daily, read-out: Arthritis Model Approx ED50, Active Immunization (CIA mouse). An excerpt: Suppression of arthritis development in CIA. DBA1/J mice were immunized with bCII/CFA at day 0 then boosted at day 21 with bCII/IFA. Arthritis development was monitored over the course of study. The arthritis score is as follows: 0=normal paw, score of 1=1-2 digit inflamed paws; score of 2=3 digits or 1-2 digit+wrist or ankle inflamed, score of 3=hand+more than 2 digits inflamed; and score of 4=multiple digits (3-4)+important wrist or ankle inflammation.
(A) Partial therapeutic evaluation of compounds. Active compound was given by oral dosing once daily at the dose indicated from day 20 after induction of antibodies to collagen II but before disease development. (B) Full therapeutic evaluation of compound. Active compound was given after disease was developed (from day 7 after the second immunization). (C) X-ray analysis of mouse paws from full therapeutic CIA study. X-ray score is the index of measurement of combination of osteopenia, bone erosion and new bone formation. (D) Representative X-ray radiographs.

Another test deals with CAIA mouse. The experiment in a line: Suppression of arthritis development in CAIA (passive immunization). The test is classed as in vivo. To be noted: BALB/c mice, once daily PO day 0 to day 7. As for the experimental part:
Suppression of arthritis development in CAIA. BALB/c mice were injected i.v. with 1 mg of anti-type II collagen antibody at day 0, and 3 days later 25 μg of LPS was injected i.p. with active compound and methotrexate (MTX) was given once daily PO from day 0 to day 7. Arthritis score and body weight was monitored over the course of study.

A word on the ED50: it is the midpoint of the dose-response relation. Turning to `CCN1C(=O)N2Cc3cc(OC)cc(OC)c3[C@@H](C)C=C2C12CCN(Cc1cc(C)cc(C)c1)CC2` [ER-819762-01], the ED50 with CIA mouse is approximately 3 mg/kg; in the test with CAIA mouse (Mus musculus, read-out: Arthritis Model Approx ED50, Passive Immunization (CAIA mouse)) it was 30 to 60 mg/kg.
Turning to `CCN1C(=O)N2Cc3cc(OC)cc(OC)c3[C@@H](C)C=C2C12CCN(Cc1cccn1C)CC2` [ER-819924-01], the ED50 in the test with CIA mouse lay in the range of 3 to 10 mg/kg.
The same measure, in the same setting: to `CCN1C(=O)N2Cc3cc(OC)cc(OC)c3[C@@H](C)C=C2C12CCN(Cc1cc(C)nn1C)CC2` [ER-819973-01] belongs 3 to 10 mg/kg.
Regarding `CN(Cc1cnc2nc(N)nc(N)c2n1)c1ccc(C(=O)N[C@@H](CCC(=O)O)C(=O)O)cc1` [methotrexate, reference compound], the “activity in the CAIA model (arthritis score)” value in the test with CAIA mouse is on record as “not particularly active”.
